Each structure is given as a SMILES string. Structures can show the parent of a compound that is named as a salt.

Conditions in all cases: 24 h
Experiment [1] concerns NHEK immortalized keratinocytes.
The subject of experiment [2] is NKTC primary neonatal keratinocytes.
For experiment [3], the system named is NHEK immortalized keratinocytes. The experiment in a line: IC50 cell viability (CellTiter-Glo). (ATP-based viability assays read luminescence as a measure of living cells.)
The test system of experiment [4] is NKTC primary neonatal keratinocytes. The experiment in a line: IC50 cell viability (CellTiter-Glo).

For `Oc1cc(Cl)ccc1Oc1ccc(Cl)cc1Cl` [Triclosan], the “IC50 cell viability (WST-8)” value in experiment [1] was over 88 µM; in experiment [2], 87.4 µM. Moreover, the IC50 cell viability in experiment [3] was 55.1 µM; in experiment [4], over 88 µM.

Regarding `C=CC(=O)OCC(CC)(COC(=O)C=C)COC(=O)C=C` [Trimethylolpropane triacrylate], the “IC50 cell viability (WST-8)” value in experiment [1] and in experiment [2] was 24.9 µM in each case. For the same compound, the IC50 cell viability was determined as 24.9 µM in experiment [3] and 20.6 µM in experiment [4].

Consider `CNc1ccc(O)cc1` [p-Methylaminophenol sulfate], for which the “IC50 cell viability (WST-8)” value in experiment [1] is 8.53 µM; in experiment [2], 13.9 µM. In addition, the IC50 cell viability in experiment [3] came to 6.78 µM; in experiment [4], 24.3 µM.

For the origin of these results see the supplement of paper PMC7046801.
